For 49 substances, normalised inhibition (eCFP-eYFP dual reporter) results are on record in the OligoGym collection.

Oligonucleotides are written 5' to 3', each unit as a sugar letter and its base; * is a phosphorothioate linkage, no mark a phosphodiester; rarer units and linkages stand in square brackets, end groups in braces. Plain capitals give the bases only. d = 2'-deoxy (DNA); r = 2'-OH (RNA)
Further: test concentration or dose not given here.

The target in the first series is P2rx2 (rat). As to the kind of experiment: reporter assay of Huesken 2005. As to conditions: siRNA.
As to “sense rUrCrArUrCrArArUrCrUrGrGrCrCrArCrUrGrCdTdT / antisense rGrCrArGrUrGrGrCrCrArGrArUrUrGrArUrGrAdTdG”, the normalised inhibition (eCFP-eYFP dual reporter) turned out to be 43.1%. The same measure, in the same setting: then “sense rUrCrCrCrArGrArCrCrUrUrGrGrGrArArCrArUdTdT / antisense rArUrGrUrUrCrCrCrArArGrGrUrCrUrGrGrGrAdAdG”, with 50.4%; and “sense rUrCrGrArUrGrUrUrArUrCrGrUrGrCrArUrGrGdTdT / antisense rCrCrArUrGrCrArCrGrArUrArArCrArUrCrGrAdTdT”, with 57.4%.

“sense rUrCrGrUrGrCrArGrArArArArGrCrUrArCrCrAdTdT / antisense rUrGrGrUrArGrCrUrUrUrUrCrUrGrCrArCrGrAdTdG” had a normalised inhibition (eCFP-eYFP dual reporter) of 74.2%. The same measure, in the same setting: then “sense rUrCrUrCrArUrCrCrUrGrCrUrUrUrArCrUrUrCdTdT / antisense rGrArArGrUrArArArGrCrArGrGrArUrGrArGrAdAdG”, with 61.3%; and “sense rUrGrArCrCrCrUrUrGrCrCrCrUrUrGrUrCrUrUdTdT / antisense rArArGrArCrArArGrGrGrCrArArGrGrGrUrCrAdCdA”, with 53.9%; and “sense rUrGrArGrArArGrGrCrArGrGrArGrArGrArArCdTdT / antisense rGrUrUrCrUrCrUrCrCrUrGrCrCrUrUrCrUrCrAdAdC”, with 32.3%. The same measure, in the same setting: then “sense rUrGrCrCrArArGrUrArUrUrArCrArArGrArUrAdTdT / antisense rUrArUrCrUrUrGrUrArArUrArCrUrUrGrGrCrAdAdA”, with 76.8%; and “sense rUrGrCrCrCrUrUrGrUrCrUrUrGrGrGrCrCrArGdTdT / antisense rCrUrGrGrCrCrCrArArGrArCrArArGrGrGrCrAdAdG”, with 37%; and “sense rUrGrGrCrCrArCrUrGrCrUrCrUrGrArCrCrUrCdTdT / antisense rGrArGrGrUrCrArGrArGrCrArGrUrGrGrCrCrAdGdA”, with 57%. “sense rUrGrGrCrUrGrUrCrCrArGrUrCrUrCrCrUrCrGdTdT / antisense rCrGrArGrGrArGrArCrUrGrGrArCrArGrCrCrAdGdT” had a normalised inhibition (eCFP-eYFP dual reporter) of 67.4%. The substance “sense rUrGrUrCrUrGrArArUrCrArGrArGrUrGrCrArAdTdT / antisense rUrUrGrCrArCrUrCrUrGrArUrUrCrArGrArCrAdAdG” returned a normalised inhibition (eCFP-eYFP dual reporter) of 80.9%. In the case of “sense rUrUrCrArCrArGrCrUrCrUrArCrCrUrGrCrCrAdTdT / antisense rUrGrGrCrArGrGrUrArGrArGrCrUrGrUrGrArAdCdC”, the normalised inhibition (eCFP-eYFP dual reporter) turned out to be 51.7%. The substance “sense rUrUrGrCrArArGrCrCrArGrArArGrArGrUrGrAdTdT / antisense rUrCrArCrUrCrUrUrCrUrGrGrCrUrUrGrCrArAdTdG” yielded a normalised inhibition (eCFP-eYFP dual reporter) of 72.8%. On the same count and under the same terms, the value for “sense rUrUrGrCrCrArArGrUrArUrUrArCrArArGrArUdTdT / antisense rArUrCrUrUrGrUrArArUrArCrUrUrGrGrCrArAdAdC” was 56.7%.

In the next series the target is UBE2C. As to the kind of experiment: reporter assay of Huesken 2005. As to conditions: siRNA. In general terms: A reporter such as luciferase makes a cellular process visible.
In turn, “sense rArArCrArUrUrGrArUrArGrUrCrCrCrUrUrGrAdTdT / antisense rUrCrArArGrGrGrArCrUrArUrCrArArUrGrUrUdGdG” registered a normalised inhibition (eCFP-eYFP dual reporter) of 93.1%.

In turn, “sense rArArGrArCrCrUrGrArGrGrUrArUrArArGrCrUdTdT / antisense rArGrCrUrUrArUrArCrCrUrCrArGrGrUrCrUrUdCdA” registered a normalised inhibition (eCFP-eYFP dual reporter) of 46.4%. In turn, “sense rArArGrUrUrCrCrUrCrArCrGrCrCrCrUrGrCrUdTdT / antisense rArGrCrArGrGrGrCrGrUrGrArGrGrArArCrUrUdCdA” showed a normalised inhibition (eCFP-eYFP dual reporter) of 51%. As for “sense rArArUrGrCrGrCrCrCrArCrArGrUrGrArArGrUdTdT / antisense rArCrUrUrCrArCrUrGrUrGrGrGrCrGrCrArUrUdGdT”, the normalised inhibition (eCFP-eYFP dual reporter) came to 57.6%. As for “sense rArCrArArUrGrCrGrCrCrCrArCrArGrUrGrArAdTdT / antisense rUrUrCrArCrUrGrUrGrGrGrCrGrCrArUrUrGrUdAdA”, the normalised inhibition (eCFP-eYFP dual reporter) came out at 93.7%.

“sense rArCrArCrArCrArUrGrCrUrGrCrCrGrArGrCrUdTdT / antisense rArGrCrUrCrGrGrCrArGrCrArUrGrUrGrUrGrUdTdC”: the normalised inhibition (eCFP-eYFP dual reporter) was determined as 78%.

For “sense rArCrArGrUrArUrArUrGrArArGrArCrCrUrGrAdTdT / antisense rUrCrArGrGrUrCrUrUrCrArUrArUrArCrUrGrUdTdC”, the normalised inhibition (eCFP-eYFP dual reporter) was determined as 88.1%. “sense rArCrArUrArUrGrCrCrUrGrGrArCrArUrCrCrUdTdT / antisense rArGrGrArUrGrUrCrCrArGrGrCrArUrArUrGrUdTdA” came in with a normalised inhibition (eCFP-eYFP dual reporter) of 75.7%. For “sense rArCrArUrCrCrUrGrArArGrGrArArArArGrUrGdTdT / antisense rCrArCrUrUrUrUrCrCrUrUrCrArGrGrArUrGrUdCdC”, the normalised inhibition (eCFP-eYFP dual reporter) was determined as 46.2%. For the substance “sense rArCrArUrUrGrArUrArGrUrCrCrCrUrUrGrArAdTdT / antisense rUrUrCrArArGrGrGrArCrUrArUrCrArArUrGrUdTdG”, the normalised inhibition (eCFP-eYFP dual reporter) was determined as 90.8%. For the substance “sense rArCrCrArUrCrCrArUrGrGrArGrCrArGrCrUrGdTdT / antisense rCrArGrCrUrGrCrUrCrCrArUrGrGrArUrGrGrUdCdC”, the normalised inhibition (eCFP-eYFP dual reporter) was 62.1%. “sense rArCrCrCrArGrGrGrUrArArCrArUrArUrGrCrCdTdT / antisense rGrGrCrArUrArUrGrUrUrArCrCrCrUrGrGrGrUdGdT”: the normalised inhibition (eCFP-eYFP dual reporter) was found to be 39.6%.

Consider “sense rArCrCrCrUrUrArCrArArUrGrCrGrCrCrCrArCdTdT / antisense rGrUrGrGrGrCrGrCrArUrUrGrUrArArGrGrGrUdAdG”, for which the normalised inhibition (eCFP-eYFP dual reporter) turned out to be 47.4%. For the substance “sense rArCrCrUrGrArGrGrUrArUrArArGrCrUrCrUrCdTdT / antisense rGrArGrArGrCrUrUrArUrArCrCrUrCrArGrGrUdCdT”, the normalised inhibition (eCFP-eYFP dual reporter) came out at 80.9%. Same read-out and setting: then “sense rArCrGrUrGrGrArCrArCrCrCrArGrGrGrUrArAdTdT / antisense rUrUrArCrCrCrUrGrGrGrUrGrUrCrCrArCrGrUdTdG”, with 83%; and “sense rArGrArCrCrUrGrArGrGrUrArUrArArGrCrUrCdTdT / antisense rGrArGrCrUrUrArUrArCrCrUrCrArGrGrUrCrUdTdC”, with 71.7%. Take “sense rArGrArGrUrUrCrCrCrCrArGrUrGrGrCrUrArCdTdT / antisense rGrUrArGrCrCrArCrUrGrGrGrGrArArCrUrCrUdAdG”: the normalised inhibition (eCFP-eYFP dual reporter) is 87%. Same read-out and setting: then “sense rArGrCrUrGrGrArArCrArGrUrArUrArUrGrArAdTdT / antisense rUrUrCrArUrArUrArCrUrGrUrUrCrCrArGrCrUdGdC”, with 97.5%. On to “sense rArGrGrArGrArArCrCrCrArArCrArUrUrGrArUdTdT / antisense rArUrCrArArUrGrUrUrGrGrGrUrUrCrUrCrCrUdAdG”, for which the normalised inhibition (eCFP-eYFP dual reporter) was found to be 94.2%. In turn, “sense rArGrGrUrArUrArArGrCrUrCrUrCrGrCrUrArGdTdT / antisense rCrUrArGrCrGrArGrArGrCrUrUrArUrArCrCrUdCdA” displayed a normalised inhibition (eCFP-eYFP dual reporter) of 92.4%. For the substance “sense rArGrUrArUrArUrGrArArGrArCrCrUrGrArGrGdTdT / antisense rCrCrUrCrArGrGrUrCrUrUrCrArUrArUrArCrUdGdT”, the normalised inhibition (eCFP-eYFP dual reporter) turned out to be 77.2%. With “sense rArGrUrGrGrCrUrArCrCrCrUrUrArCrArArUrGdTdT / antisense rCrArUrUrGrUrArArGrGrGrUrArGrCrCrArCrUdGdG”, the normalised inhibition (eCFP-eYFP dual reporter) amounted to 76.9%. In the case of “sense rArGrUrGrGrUrCrUrGrCrCrCrUrGrUrArUrGrAdTdT / antisense rUrCrArUrArCrArGrGrGrCrArGrArCrCrArCrUdTdT”, the normalised inhibition (eCFP-eYFP dual reporter) amounted to 61.1%.

The substance “sense rArGrUrUrCrCrUrCrArCrGrCrCrCrUrGrCrUrAdTdT / antisense rUrArGrCrArGrGrGrCrGrUrGrArGrGrArArCrUdTdC” showed a normalised inhibition (eCFP-eYFP dual reporter) of 84.4%.

Substance “sense rArUrGrCrUrGrCrCrGrArGrCrUrCrUrGrGrArAdTdT / antisense rUrUrCrCrArGrArGrCrUrCrGrGrCrArGrCrArUdGdT” registered a normalised inhibition (eCFP-eYFP dual reporter) of 84.5%. Same read-out and setting: the value for “sense rArUrGrGrArGrCrArGrCrUrGrGrArArCrArGrUdTdT / antisense rArCrUrGrUrUrCrCrArGrCrUrGrCrUrCrCrArUdGdG” was 84.5%; that for “sense rArUrGrUrCrArGrGrArCrCrArUrUrCrUrGrCrUdTdT / antisense rArGrCrArGrArArUrGrGrUrCrCrUrGrArCrArUdCdA” was 56.5%. Substance “sense rCrArCrCrCrCrArArCrGrUrGrGrArCrArCrCrCdTdT / antisense rGrGrGrUrGrUrCrCrArCrGrUrUrGrGrGrGrUrGdAdT” came in with a normalised inhibition (eCFP-eYFP dual reporter) of 11.6%. For the substance “sense rCrArGrArGrCrCrUrUrCrUrArGrGrArGrArArCdTdT / antisense rGrUrUrCrUrCrCrUrArGrArArGrGrCrUrCrUrGdGdA”, the normalised inhibition (eCFP-eYFP dual reporter) came to 75.5%. Consider “sense rCrArGrGrArCrCrArUrUrCrUrGrCrUrCrUrCrCdTdT / antisense rGrGrArGrArGrCrArGrArArUrGrGrUrCrCrUrGdAdC”, for which the normalised inhibition (eCFP-eYFP dual reporter) was determined as 45.4%.

Substance “sense rCrArGrUrArUrArUrGrArArGrArCrCrUrGrArGdTdT / antisense rCrUrCrArGrGrUrCrUrUrCrArUrArUrArCrUrGdTdT” showed a normalised inhibition (eCFP-eYFP dual reporter) of 82.2%. Consider “sense rCrArUrCrCrArGrArGrCrCrUrUrCrUrArGrGrAdTdT / antisense rUrCrCrUrArGrArArGrGrCrUrCrUrGrGrArUrGdGdA”, for which the normalised inhibition (eCFP-eYFP dual reporter) was 78.6%. Regarding “sense rCrArUrGrCrUrGrCrCrGrArGrCrUrCrUrGrGrAdTdT / antisense rUrCrCrArGrArGrCrUrCrGrGrCrArGrCrArUrGdTdG”, the normalised inhibition (eCFP-eYFP dual reporter) was found to be 90.5%. In turn, “sense rCrArUrUrCrUrGrCrUrCrUrCrCrArUrCrCrArGdTdT / antisense rCrUrGrGrArUrGrGrArGrArGrCrArGrArArUrGdGdT” returned a normalised inhibition (eCFP-eYFP dual reporter) of 79.7%.
